Measured values: ChEMBL document CHEMBL1152021, “(E) and (Z)-3-Styrylpiperidines as sigma ligands” (Bioorg Med Chem Lett, 1997)

Experiments:
[1] = target: Sigma non-opioid intracellular receptor 1 (Rattus norvegicus, UniProt Q9R0C9); assay: Binding affinity at sigma receptor by [3H](+)-SKF-10047 displacement.
[2] = target: D(1A) dopamine receptor (Rattus norvegicus, UniProt P18901); assay: Binding affinity at dopamine D1 receptor in rat striatum by [3H][…] displacement.; type: tissue-based
[3] = target: D(2) dopamine receptor (Rattus norvegicus, UniProt P61169); assay: Binding affinity at dopamine D2 receptor in rat striatum by [3H]spiperone displacement.; type: tissue-based
D(2) dopamine receptor, sequence (P61169 whole entry): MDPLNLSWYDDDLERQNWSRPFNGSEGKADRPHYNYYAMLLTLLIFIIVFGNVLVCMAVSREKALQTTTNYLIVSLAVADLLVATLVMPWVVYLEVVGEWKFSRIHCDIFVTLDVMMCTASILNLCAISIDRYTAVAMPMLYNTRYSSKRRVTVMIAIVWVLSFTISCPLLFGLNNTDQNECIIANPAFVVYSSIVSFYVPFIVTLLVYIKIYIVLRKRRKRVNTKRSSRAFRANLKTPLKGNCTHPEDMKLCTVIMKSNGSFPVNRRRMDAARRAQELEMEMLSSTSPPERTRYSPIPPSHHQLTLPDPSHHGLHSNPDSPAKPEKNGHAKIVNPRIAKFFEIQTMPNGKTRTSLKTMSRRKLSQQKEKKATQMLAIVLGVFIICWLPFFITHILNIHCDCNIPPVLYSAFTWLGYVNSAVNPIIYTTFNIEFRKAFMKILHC

Sigma non-opioid intracellular receptor 1, sequence (Q9R0C9 whole entry): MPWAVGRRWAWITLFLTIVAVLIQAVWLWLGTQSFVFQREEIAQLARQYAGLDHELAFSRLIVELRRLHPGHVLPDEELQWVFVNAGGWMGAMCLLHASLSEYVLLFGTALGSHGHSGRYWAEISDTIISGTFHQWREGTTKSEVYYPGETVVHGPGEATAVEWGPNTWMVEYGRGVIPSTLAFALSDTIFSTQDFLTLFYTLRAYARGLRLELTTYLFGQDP
D(1A) dopamine receptor, sequence (P18901 whole entry): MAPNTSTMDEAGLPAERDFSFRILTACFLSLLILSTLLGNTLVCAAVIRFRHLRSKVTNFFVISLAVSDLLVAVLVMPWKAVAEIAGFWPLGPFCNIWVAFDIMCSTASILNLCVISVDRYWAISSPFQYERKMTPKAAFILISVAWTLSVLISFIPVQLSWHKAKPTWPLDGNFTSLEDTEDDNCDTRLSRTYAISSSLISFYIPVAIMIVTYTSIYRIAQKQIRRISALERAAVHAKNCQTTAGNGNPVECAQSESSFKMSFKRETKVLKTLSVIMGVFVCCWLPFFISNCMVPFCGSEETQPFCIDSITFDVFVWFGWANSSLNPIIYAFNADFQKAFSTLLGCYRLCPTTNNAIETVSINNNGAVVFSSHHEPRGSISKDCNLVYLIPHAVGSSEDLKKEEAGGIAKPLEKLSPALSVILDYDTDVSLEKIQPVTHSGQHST

Row | IC50 [1] | IC50 [2] | IC50 [3] | Structure (SMILES)
1 | 23 nM | – | – | O=C1c2ccccc2S(=O)(=O)N1CCCCN1CCCC(/C=C/c2ccccc2)C1 (stereo not drawn)
2 | 10 nM | – | – | C(=C\C1CCCN(Cc2ccccc2)C1)/c1ccccc1 (stereo not drawn)
3 | 12 nM | – | – | C=CCCCN1CCCC(/C=C/c2ccccc2)C1 (stereo not drawn)
4 | 64 nM | > 10000 nM | 870 nM | C(=C/C1CCCNC1)/c1ccccc1 (stereo not drawn)
5 | 4 nM | 1550 nM | 1240 nM | C(=C\C1CCCN(CCCc2ccccc2)C1)/c1ccccc1 (stereo not drawn)
6 | 7 nM | > 10000 nM | 5440 nM | C(=C/C1CCCN(CCC2CCCCC2)C1)/c1ccccc1 (stereo not drawn)
7 | 423 nM | > 10000 nM | > 10000 nM | C(=C\C1CCCNC1)/c1ccccc1 (stereo not drawn)
8 | 2 nM | > 10000 nM | 1120 nM | C(=C/C1CCCN(C2CCCCC2)C1)/c1ccccc1 (stereo not drawn)
9 | 640 nM | – | – | O=C(CN1CCCC(/C=C\c2ccccc2)C1)Nc1ccccc1 (stereo not drawn)
10 | 23 nM | – | – | O=C(NCCCCN1CCCC(/C=C\c2ccccc2)C1)C12C[C@H]3C[C@@H](C1)C[C@@H](C2)C3 (stereo partly drawn)
11 | 6 nM | > 10000 nM | 2400 nM | C(=C\C1CCCN(CCc2ccccc2)C1)/c1ccccc1 (stereo not drawn)
12 | 6 nM | > 10000 nM | 5120 nM | C(=C\C1CCCN(C2CCCCC2)C1)/c1ccccc1 (stereo not drawn)
13 | 15 nM | – | – | O=C(CCCN1CCCC(/C=C\c2ccccc2)C1)c1ccccc1 (stereo not drawn)
14 | 33 nM | – | – | C(=C\C1CCCN(CCCOc2ccccc2)C1)/c1ccccc1 (stereo not drawn)
15 | 0.8 nM | 630 nM | 120 nM | C(=C/C1CCCN(CCc2ccccc2)C1)/c1ccccc1 (stereo not drawn)
16 | 27 nM | – | – | C(=C/C1CCCN(CCCSc2nc3ccccc3s2)C1)/c1ccccc1 (stereo not drawn)
17 | 38 nM | 1330 nM | 180 nM | CC(C)=CCN1CCCC(/C=C/c2ccccc2)C1 (stereo not drawn)
18 | 4 nM | > 10000 nM | > 10000 nM | C=CCN1CCCC(/C=C/c2ccccc2)C1 (stereo not drawn)
19 | 1 nM | 320 nM | 160 nM | CC(C)=CCN1CCCC(/C=C\c2ccccc2)C1 (stereo not drawn)
20 | 15 nM | – | – | C(=C/C1CCCN(CCCOc2ccccc2)C1)/c1ccccc1 (stereo not drawn)
21 | 7 nM | 5840 nM | 1440 nM | C(=C/C1CCCN(CCCCc2ccccc2)C1)/c1ccccc1 (stereo not drawn)
22 | 0.6 nM | 2200 nM | 150 nM | C(=C/C1CCCN(CCCc2ccccc2)C1)/c1ccccc1 (stereo not drawn)
